What was measured:
[1] = xn = mol fraction of the nth substance listed; conditions: 100 kPa, Liquid
[2] = for mass density / viscosity: 100 kPa, Liquid; for Normal melting temperature: Crystal, DTA
[3] = Molar enthalpy of transition or fusion; conditions: Crystal; DSC

CCCc1ccc[n+](C)c1.F[P-](F)(F)(F)(F)F [1-methyl-3-propylpyridinium hexafluorophosphate] + O
[1], x2 = 0.249
Conditions | mass density [kg/m3] | viscosity [mPa·s]
303.15 K | 1362.5 | 73.39
308.15 K | 1358.3 | 57.55
313.15 K | 1354 | 45.98
318.15 K | 1349.8 | 37.36
323.15 K | 1345.6 | 30.81
328.15 K | 1341.4 | 25.75
333.15 K | 1337.2 | 21.76
338.15 K | 1333.1 | 18.6
343.15 K | 1328.9 | 16.04
348.15 K | 1324.8 | 13.98
353.15 K | 1320.7 | 12.28
358.15 K | 1316.6 | 10.86
363.15 K | 1312.5 | 9.677

CCCc1ccc[n+](C)c1.F[P-](F)(F)(F)(F)F [1-methyl-3-propylpyridinium hexafluorophosphate]
[2]
Conditions | mass density [kg/m3] | viscosity [mPa·s]
318.15 K | 1365.4 | 132.87
323.15 K | 1361.3 | 102.17
328.15 K | 1357.3 | 79.97
333.15 K | 1353.2 | 63.67
338.15 K | 1349.2 | 51.52
343.15 K | 1345.2 | 42.29
348.15 K | 1341.2 | 35.16
353.15 K | 1337.2 | 29.58
358.15 K | 1333.2 | 25.15
363.15 K | 1329.2 | 21.59

Conditions | Molar enthalpy of transition or fusion [kcal/mol] | Normal melting temperature [°C]
[2] | – | 38.1
[3] | 3.59 | –

CCCn1cc[n+](C)c1.F[P-](F)(F)(F)(F)F [1-methyl-3-propylimidazolium hexafluorophosphate]
[2]
Conditions | mass density [kg/m3] | viscosity [mPa·s]
318.15 K | 1397.5 | 85.01
323.15 K | 1393.2 | 68.18
328.15 K | 1389 | 55.46
333.15 K | 1384.7 | 45.7
338.15 K | 1380.5 | 38.09
343.15 K | 1376.3 | 32.1
348.15 K | 1372.1 | 27.32
353.15 K | 1367.9 | 23.47
358.15 K | 1363.8 | 20.34
363.15 K | 1359.6 | 17.77

Conditions | Molar enthalpy of transition or fusion [kcal/mol] | Normal melting temperature [°C]
[2] | – | 38.5
[3] | 3.99 | –

CCCn1cc[n+](C)c1.F[P-](F)(F)(F)(F)F [1-methyl-3-propylimidazolium hexafluorophosphate] + O
[1], x2 = 0.306
Conditions | mass density [kg/m3] | viscosity [mPa·s]
303.15 K | 1389.2 | 39.41
308.15 K | 1384.7 | 32.25
313.15 K | 1380.2 | 26.84
318.15 K | 1375.7 | 22.61
323.15 K | 1371.3 | 19.29
328.15 K | 1366.9 | 16.58
333.15 K | 1362.5 | 14.39
338.15 K | 1358.1 | 12.61
343.15 K | 1353.8 | 11.13
348.15 K | 1349.4 | 9.905
353.15 K | 1345.1 | 8.874
358.15 K | 1340.8 | 7.983
363.15 K | 1336.5 | 7.228

Source: the NIST ThermoML archive (doi:10.1021/je100638g)
